Results from the supplement of paper PMC10307832.

Assays:
Test in all cases: relative viability (nuclei count vs DMSO), 5 days (fraction); higher = more cells survive
[1] = compound: CC1=CN=C(N=C1C2=CNC(=C2)C(=O)N[C@H](CO)C3=CC(=CC=C3)Cl)NC4=C(C=C(C=C4)F)Cl [VX-11e] + CC(=O)Nc1cccc(-n2c(=O)n(C3CC3)c(=O)c3c(Nc4ccc(I)cc4F)n(C)c(=O)c(C)c32)c1 [Trametinib] (partner 0.02 µM)
Method in brief: (§1)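 Each reported value is a median over duplicate plates. It expresses relative viability: treated-well nuclei count divided by vehicle-well nuclei count. Lung cancer cell lines in 1536-well plates were dosed by pin tool a day after seeding, alone with one drug or with a fixed anchor-drug dose plus five library-drug doses (not always all listed) in √10 steps, and nuclei were counted after 5 days.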

[2] = compound: CC1=CN=C(N=C1C2=CNC(=C2)C(=O)N[C@H](CO)C3=CC(=CC=C3)Cl)NC4=C(C=C(C=C4)F)Cl [VX-11e] + O=C(c1cc(Cc2n[nH]c(=O)c3ccccc23)ccc1F)N1CCN(C(=O)C2CC2)CC1 [Olaparib] (partner 8 µM)
Method in brief: as §1

[3] = compound: CC1=CN=C(N=C1C2=CNC(=C2)C(=O)N[C@H](CO)C3=CC(=CC=C3)Cl)NC4=C(C=C(C=C4)F)Cl [VX-11e] + N=C(N)NC(=N)NCCc1ccccc1 [Phenformin] (partner 250 µM)
Method in brief: as §1

[4] = compound: CC1=CN=C(N=C1C2=CNC(=C2)C(=O)N[C@H](CO)C3=CC(=CC=C3)Cl)NC4=C(C=C(C=C4)F)Cl [VX-11e]
Method in brief: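 Acceptance criteria were a control CV below 25% and at least one doubling per plate. Lung cancer cell lines in 1536-well plates got five library-drug doses (not always all listed) √10 apart by pinning and were left 5 days with no medium change. Viability divides treated-well nuclei by vehicle-well nuclei and is the median across plates. Nuclei were counted by MetaXpress from 4× Hoechst images.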

| Cell Line | relative viability ([1]; first compound 0.04 µM) | relative viability ([1]; first compound 0.1265 µM) | relative viability ([1]; first compound 0.4 µM) | relative viability ([1]; first compound 1.265 µM) | relative viability ([1]; first compound 4 µM) | relative viability ([2]; first compound 0.04 µM) | relative viability ([2]; first compound 0.1265 µM) | relative viability ([2]; first compound 0.4 µM) | relative viability ([2]; first compound 1.265 µM) | relative viability ([2]; first compound 4 µM) | relative viability ([3]; first compound 0.04 µM) | relative viability ([3]; first compound 0.1265 µM) | relative viability ([3]; first compound 0.4 µM) | relative viability ([3]; first compound 1.265 µM) | relative viability ([3]; first compound 4 µM) | relative viability ([4]; 0.04 µM) | relative viability ([4]; 0.1265 µM) | relative viability ([4]; 0.4 µM) | relative viability ([4]; 1.265 µM) | relative viability ([4]; 4 µM) |
| --- | --- | --- | --- | --- | --- | --- | --- | --- | --- | --- | --- | --- | --- | --- | --- | --- | --- | --- | --- | --- |
| NCI-H661 | 0.568 | 0.542 | 0.476 | 0.506 | 0.376 | 0.779 | 0.777 | 0.719 | 0.724 | 0.61 | 0.242 | 0.324 | 0.275 | 0.293 | 0.27 | 1.01 | 1.02 | 0.947 | 1.04 | 0.724 |
| H3255 | 0.678 | 0.635 | 0.425 | 0.443 | 0.33 | 0.582 | 0.544 | 0.496 | 0.552 | 0.497 | 0.359 | 0.411 | 0.378 | 0.362 | 0.319 | 1.03 | 0.925 | 0.896 | 0.911 | 0.875 |
| CAL-12T | 0.235 | 0.243 | 0.285 | 0.229 | 0.228 | 0.802 | 0.718 | 0.732 | 0.618 | 0.316 | 0.677 | 0.507 | 0.504 | 0.41 | 0.194 | 0.955 | 0.942 | 0.964 | 0.715 | 0.376 |
| NCI-H1915 | 0.305 | 0.284 | 0.233 | 0.204 | 0.114 | 0.277 | 0.23 | 0.305 | 0.225 | 0.231 | 0.401 | 0.343 | 0.291 | 0.298 | 0.235 | 0.992 | 0.784 | 0.784 | 0.734 | 0.489 |
| NCI-H2023 | 0.601 | 0.495 | 0.391 | 0.292 | 0.171 | 0.541 | 0.45 | 0.507 | 0.475 | 0.346 | 0.393 | 0.404 | 0.291 | 0.322 | 0.191 | 0.941 | 0.957 | 0.557 | 0.569 | 0.445 |
| NCI-H727 | 0.415 | 0.374 | 0.379 | 0.365 | 0.346 | 0.626 | 0.593 | 0.747 | 0.678 | 0.457 | 0.439 | 0.475 | 0.451 | 0.359 | 0.353 | 0.784 | 0.933 | 0.687 | 0.551 | 0.347 |
| NCI-H2170 | 0.805 | 0.913 | 0.89 | 0.854 | 0.819 | 0.635 | 0.662 | 0.603 | 0.629 | 0.534 | 0.41 | 0.431 | 0.21 | 0.445 | 0.39 | 0.862 | 0.938 | 0.871 | 0.913 | 0.949 |
